The supplement of paper PMC13380429

Tests used:
Settings in all cases: 72 h
U2OS [1] = test: relative viability EC50 (midpoint between 100% and the lowest measured viability); higher = less toxic
Vero E6 [2] = test: as above
HepG2 [3] = test: as above
Calu-3 [4] = test: as above
U2OS [5] = test: cell viability relative to DMSO; higher = less toxic
Vero E6 [6] = test: as above
HepG2 [7] = test: as above
Calu-3 [8] = test: as above
U2OS [9] = test: drug sensitivity score (DSS) for viability; higher = more toxic; extreme values may be limits of the assay
Vero E6 [10] = test: as above
HepG2 [11] = test: as above
Calu-3 [12] = test: as above
Caco-2 [13] = test: cell viability relative to DMSO; higher = less toxic
Caco-2 [14] = test: drug sensitivity score (DSS) for viability; higher = more toxic; extreme values may be limits of the assay

Row | Compound | relative viability EC50 (U2OS [1]) [µM] | relative viability EC50 (Vero E6 [2]) [µM] | relative viability EC50 (HepG2 [3]) [µM] | relative viability EC50 (Calu-3 [4]) [µM] | cell viability (U2OS [5]; 1 nM) [%] | cell viability (U2OS [5]; 10 nM) [%] | cell viability (U2OS [5]; 100 nM) [%] | cell viability (U2OS [5]; 1000 nM) [%] | cell viability (U2OS [5]; 10000 nM) [%] | cell viability (Vero E6 [6]; 1 nM) [%] | cell viability (Vero E6 [6]; 10 nM) [%] | cell viability (Vero E6 [6]; 100 nM) [%] | cell viability (Vero E6 [6]; 1000 nM) [%] | cell viability (Vero E6 [6]; 10000 nM) [%] | cell viability (HepG2 [7]; 1 nM) [%] | cell viability (HepG2 [7]; 10 nM) [%] | cell viability (HepG2 [7]; 100 nM) [%] | cell viability (HepG2 [7]; 1000 nM) [%] | cell viability (HepG2 [7]; 10000 nM) [%] | cell viability (Calu-3 [8]; 1 nM) [%] | cell viability (Calu-3 [8]; 10 nM) [%] | cell viability (Calu-3 [8]; 100 nM) [%] | cell viability (Calu-3 [8]; 1000 nM) [%] | cell viability (Calu-3 [8]; 10000 nM) [%] | drug sensitivity score (U2OS [9]) | drug sensitivity score (Vero E6 [10]) | drug sensitivity score (HepG2 [11]) | drug sensitivity score (Calu-3 [12]) | cell viability (Caco-2 [13]; 1 nM) [%] | cell viability (Caco-2 [13]; 10 nM) [%] | cell viability (Caco-2 [13]; 100 nM) [%] | cell viability (Caco-2 [13]; 1000 nM) [%] | cell viability (Caco-2 [13]; 10000 nM) [%] | drug sensitivity score (Caco-2 [14])
1 | CC(C)c1cc2c(cc1S(=O)(=O)O)[C@@]1(C)CCC[C@@](C)(C(=O)O)[C@@H]1CC2 [ecabet] | > 10 | > 10 | > 10 | > 10 | 96.7 | 93.7 | 99.1 | 95 | 103 | 96.4 | 96.1 | 96.9 | 96.9 | 107 | 105 | 110 | 93.8 | 112 | 104 | 109 | 107 | 112 | 110 | 99.5 | 0 | 0 | 0 | 0 |  |  |  |  |  | 
2 | C#Cc1cccc(Nc2ncnc3cc(OCCOC)c(OCCOC)cc23)c1 [erlotinib] | > 10 | 1.36 |  | 0.453 | 96.7 | 96.4 | 94.2 | 93.5 | 82.9 | 111 | 104 | 92 | 73.4 | 26.8 | 108 | 122 | 104 | 97.8 | 58.2 | 107 | 109 | 86.2 | 52 | 30.1 | 0.4 | 7.1 | 2.4 | 10.6 | 105 | 92.5 | 98.2 | 79.7 | 54.2 | 4.7
3 | C[C@]12CC[C@@H]3c4ccc(OC(=O)c5ccccc5)cc4CC[C@H]3[C@@H]1CC[C@@H]2O [estradiol-benzoate] | > 10 |  | > 10 | > 10 | 108 | 105 | 106 | 103 | 99.8 |  |  |  |  |  | 104 | 118 | 103 | 105 | 97.8 | 101 | 96.4 | 98.6 | 94.3 | 88.6 | 0 |  | 0 | 0 |  |  |  |  |  | 
4 | N=C(N)N [guanidine] | > 10 |  | > 10 |  | 105 | 106 | 105 | 99.9 | 108 | 76.8 | 106 | 82.2 | 110 | 69.3 | 101 | 117 | 101 | 96.2 | 105 |  |  |  |  |  | 0 | 0.9 | 0 |  |  |  |  |  |  | 
5 | C=CC(C)(C)c1cc(/C=C/C(=O)c2ccc(O)cc2)c(OC)cc1O [licochalcone-A] | > 10 | > 10 |  | > 10 | 95.7 | 96.5 | 100 | 95.8 | 88.7 | 103 | 101 | 90.2 | 98 | 102 | 99.9 | 100 | 74.4 | 99.2 | 78.4 | 96.1 | 100 | 106 | 98.1 | 91.7 | 0.1 | 0 | 1.5 | 0 | 92.4 | 83 | 105 | 88 | 70.8 | 2.8
6 | COc1ccc(C(C)(C)C)cc1CN[C@H]1C2CCN(CC2)[C@H]1C(c1ccccc1)c1ccccc1 [maropitant] |  |  | 3.17 | 3.24 | 99.5 | 98.9 | 101 | 93.9 | 67.3 | 100 | 106 | 100 | 101 | 62.6 | 107 | 104 | 98.9 | 100 | 11.6 | 108 | 104 | 110 | 101 | 1.7 | 2.5 | 1.7 | 4.9 | 5.4 | 103 | 96.4 | 101 | 103 | 67.4 | 1.3
7 | C[C@H](N)[C@H](O)c1cccc(O)c1 [metaraminol] |  | > 10 | > 10 | > 10 |  |  |  |  |  | 105 | 101 | 108 | 97.5 | 102 | 97.9 | 102 | 100 | 97.2 | 103 | 90.4 | 96.8 | 98.7 | 99.9 | 91.9 |  | 0 | 0 | 0 |  |  |  |  |  | 
8 | Cc1cccc(C)c1OCC(C)N (centres undefined) [mexiletine] |  |  |  |  |  |  |  |  |  |  |  |  |  |  |  |  |  |  |  |  |  |  |  |  | 0 | 0 | 0.1 | 0 |  |  |  |  |  | 
9 | CCCCCCCCOc1ccccc1C(=O)Nc1ccc(C(=O)OCC[N+](C)(CC)CC)cc1 [otilonium] | > 10 | > 10 | > 10 | > 10 | 101 | 106 | 98 | 101 | 90.7 | 103 | 97.2 | 106 | 97.8 | 94.1 | 109 | 96.2 | 108 | 96 | 83.8 | 97 | 104 | 91.1 | 96.7 | 89.3 | 0 | 0 | 0.7 | 0 | 89.1 | 99.4 | 97 | 97.5 | 74.7 | 1.4
10 | OCCN1CCN(CCCN2c3ccccc3Sc3ccc(Cl)cc32)CC1 [perphenazine] | > 10 |  |  | > 10 | 101 | 97 | 101 | 99.3 | 90.6 | 107 | 96.4 | 100 | 99.8 | 71.5 | 114 | 100 | 94.7 | 96 | 59.3 | 95.6 | 93.5 | 106 | 101 | 77.2 | 0 | 1.2 | 2.7 | 0.7 | 99.4 | 100 | 94.8 | 72.7 | 69.8 | 5.1
11 | COc1ccc(C(=O)c2c(C)n(CCN3CCOCC3)c3ccccc23)cc1 [pravadoline] |  | > 10 | > 10 |  | 92 | 97.4 | 95.5 | 99.7 | 55.5 | 106 | 107 | 105 | 100 | 95.7 | 100 | 99.9 | 108 | 100 | 99.5 |  |  |  |  |  | 2.3 | 0 | 0 |  | 104 | 99.7 | 91.9 | 95.1 | 50.8 | 3.4
12 | O=C(C1CCCCC1)N1CC(=O)N2CCc3ccccc3C2C1 (centres undefined) [praziquantel] | > 10 | > 10 | > 10 | > 10 | 99 | 104 | 100 | 101 | 97.5 | 103 | 102 | 106 | 99.1 | 106 | 107 | 90.7 | 107 | 94.3 | 82.3 | 102 | 96.9 | 104 | 98.9 | 91.7 | 0 | 0 | 1 | 0 | 109 | 112 | 100 | 109 | 70.7 | 0.9
13 | CCOC(=O)[C@H](CCc1ccccc1)N[C@@H](C)C(=O)N1[C@H](C(=O)O)C[C@@H]2CCC[C@@H]21 [ramipril] |  |  |  |  |  |  |  |  |  |  |  |  |  |  |  |  |  |  |  |  |  |  |  |  | 0 | 0 | 0 | 0 |  |  |  |  |  | 
14 | C=CC(=O)Nc1cccc(Nc2nc(Nc3ccc(N4CCN(C(C)=O)CC4)cc3OC)ncc2C(F)(F)F)c1 [rociletinib] | 2.03 | > 10 | 1.38 | 0.822 | 100 | 93.9 | 101 | 88 | 16.7 | 105 | 99.7 | 99.4 | 101 | 83 | 106 | 96.1 | 90.2 | 79.2 | 42.3 | 95.6 | 88.6 | 88.3 | 57.8 | 16.6 | 6.6 | 0.3 | 5.3 | 10 | 97.4 | 95.9 | 98.3 | 92.3 | 62.6 | 3.1
15 | Cc1cc(C)nc(NS(=O)(=O)c2ccc(N)cc2)n1 [sulfamethazine] |  |  |  |  |  |  |  |  |  |  |  |  |  |  |  |  |  |  |  |  |  |  |  |  | 0 | 0 | 0 | 0 |  |  |  |  |  | 
16 | Nc1ccc(S(=O)(=O)Nc2cnc3ccccc3n2)cc1 [sulfaquinoxaline] |  |  |  |  |  |  |  |  |  |  |  |  |  |  |  |  |  |  |  |  |  |  |  |  | 0 | 0 | 0 | 0.4 |  |  |  |  |  | 
17 | C[C@H](NC(=O)C(C)(C)Oc1ccc(C(F)(F)F)cn1)[C@@H](Cc1ccc(Cl)cc1)c1cccc(C#N)c1 [taranabant] | > 10 | > 10 |  | > 10 | 100 | 95.8 | 96.3 | 95.2 | 90.9 | 103 | 96.5 | 99.6 | 97.8 | 85.5 | 105 | 106 | 111 | 103 | 72.4 | 96.5 | 95.5 | 94.4 | 107 | 86.6 | 0 | 0.4 | 1 | 0 | 97.3 | 108 | 105 | 94.4 | 73.4 | 1.9
18 | O[C@@H](COc1cccc2ncccc12)CN1CCN([C@@H]2c3ccccc3[C@@H]3[C@H](c4ccccc42)C3(F)F)CC1 [zosuquidar] | > 10 |  |  | > 10 | 99 | 99.4 | 99.4 | 98.2 | 76.2 | 104 | 105 | 98.7 | 98.5 | 72.6 | 104 | 98.8 | 95.6 | 92.4 | 63.1 | 102 | 108 | 91.5 | 96.1 | 85.7 | 1.1 | 1.3 | 3 | 0.1 | 99.5 | 102 | 87.8 | 90.2 | 55.2 | 3.6
